Assay results: patent publication US20150150892A1, “METHODS AND PRODUCTS RELATED TO LUNG CANCER” (Massachusetts Institute of Technology, priority 2012, published 2015)

Key:
[1] = system: NF-κB target genes in H2122 and H2009 cell lines; assay: QPCR of NF-κB target genes in human NSCLC cell lines; assay type: cell-based; details: 10 nM Bortezomib, 24 hours
Protocol: FIG. 8: Bortezomib inhibits NF-κB signaling in human NSCLC cells. H2122 (KRASG12C;TP53c176F/Q16L) (8A) and H2009 (KRASG12A;TP53R273L) (8B) cell lines were treated with vehicle control or 10 nM Bortezomib for 24 hours. NF-κB target gene expression was measured by QPCR. Error bars are s.d. (n=3). N.D. denotes not detectable. Mutation information is from the Sanger COSMIC database.
RNA was purified using TRIzol (Invitrogen), according to the manufacturer's instructions. One microgram of RNA was reverse transcribed using the High-Capacity cDNA Reverse Transcription Kit (Applied Biosystems). Real-time PCR (quantitative PCR) amplification was performed using Taqman probes (Applied Biosystems). Data were normalized to the Gapdh (mouse) or GAPDH (human) levels.

[2] = system: KP mice; assay: Kaplan-Meier survival of KP mice; assay type: in vivo, mouse; details: KP mice, bortezomib 1 mg/kg once a week for 4 weeks from 8 weeks after Adeno-Cre; control 76.8±10.6 days; P=0.001
Protocol: (5A and 5B) Kaplan-Meier survival curve of vehicle control and bortezomib-treated KP (5A) and K (5B) mice. Arrows indicate weekly 1 mg/kg bortezomib regimen. […] Arrows indicate bortezomib injection.
To analyze the long-term effects of bortezomib therapy, we investigated whether a 4-dose regimen of bortezomib (19) could prolong survival of tumor-bearing mice. Using a cohort of KP mice, we treated tumor-bearing animals 8 weeks after Adeno-Cre infection with bortezomib once a week for 4 weeks (FIG. 10A).

[3] = system: KrasLSL-G12D/wt;p53flox/flox (KP) lung tumors; assay: MicroCT lung tumor volume in KP mice; assay type: in vivo, mouse
Source text: (§1) FIG. 3: Bortezomib induces acute lung tumor regression in KrasLSL-G12D/wt;p53flox/flox (KP) mice, but not in KrasLSL-G12D/wt (K) mice. (3A and 3C) representative microCT images (n=6) of KP (3A) and K (3C) lung tumors prior to pre-treatment (D0) and 4 days (D4) after a single dose of vehicle control or bortezomib. (3 B and 3D) Quantification of tumor volume change (D4 compared with D0) in control- and bortezomib-treated mice. Each bar represents an individual tumor. P<10^−6 in KP mice (3B); P>0.05 in K mice (3D).
FIG. 5: Bortezomib increases survival in KP mice. (5A and 5B) Kaplan-Meier survival curve of vehicle control and bortezomib-treated KP (5A) and K (5B) mice. Arrows indicate weekly 1 mg/kg bortezomib regimen. (5C) quantification of lung tumor volume of control- and bortezomib-treated KP mice. From 10 weeks after Adeno-Cre infection, lungs were imaged by microCT to measure individual tumor volumes (n=4). Data points represent means of fold change and SD relative to 10 weeks (set to 1). Arrows indicate bortezomib injection. D, CC3 staining (×200) in lung tumors receiving 3 doses of control (“C”) and 1 final dose of bortezomib (“B,” left) or 4 doses of bortezomib (right). Tumors were harvested 48 hours after the last treatment (n=4).
The Massachusetts Institute of Technology (Cambridge, Mass.) Institutional Animal Care and Use Committee approved all animal studies and procedures. […]
At indicated time points, mice were scanned for 15 min under isoflurane anesthesia, using a small animal eXplore Locus microCT (GE Healthcare) at 45-μm resolution, 80 kV, with 450-mA current (47). […] Mice were imaged for 60 seconds, and signals in the lung were quantified using Xenogen software.
To understand the relevance of these findings in vivo, we examined bortezomib-mediated NF-κB inhibition in both KP and K models of lung cancer. […] Individual lung tumors were monitored using micro-computed tomography (microCT) imaging prior to treatment (D0) and 4 days post treatment (D4). […]

[4] = system: KrasL^St-G12Dwt (low NF-κB) mice; assay: FIG. 19 study, mice with low NF-κB; assay type: in vivo, mouse; details: 1 mg/kg IV bortezomib
Protocol: (§2) FIG. 19 is a schetaic diagram showing the experimental conditions and a set of graphs showing the results. Two sets of mice were treated with […] IV bortezomib, Kras^G120;p53^fl/fl (high NF-κB, top panel) or KrasL^St-G12Dwt (low NF-κB, bottom panel). […] The relapsed tumors have high Hmcgs2.
(§3) Mice having either high or low levels of NF-κB were treated with […] IV bortezomib and examined for tumor progression, apoptosis and survival. The mice are Kras^G120;p53^fl/fl (high NF-κB) or KrasL^St-G12Dwt (low NF-κB). […] The relapsed tumors have high Hmcgs2.

[5] = system: KrasLSL-G12D/wt (K) lung tumors; assay: MicroCT lung tumor volume in K mice; assay type: in vivo, mouse; details: single 1 mg/kg dose, 20 weeks post infection
Source text: as §1
The Massachusetts Institute of Technology (Cambridge, Mass.) Institutional Animal Care and Use Committee approved all animal studies and procedures. To initiate lung tumors, cohorts of K or KP mice of 129svJae background were infected with 2.5×10^7 plaque-forming units of Adeno-Cre (University of Iowa) by intranasal inhalation, as described previously (2, 28). Mice were given bortezomib (LC Labs) in PBS [0.5% dimethylsulfoxide (DMSO)] at 1 mg/kg body weight i.v., as indicated. […]
At indicated time points, mice were scanned for 15 min under isoflurane anesthesia, using a small animal eXplore Locus microCT (GE Healthcare) at 45-μm resolution, 80 kV, with 450-mA current (47). […] Mice were imaged for 60 seconds, and signals in the lung were quantified using Xenogen software. […]

[6] = system: Kras^G120;p53^fl/fl (high NF-κB) mice; assay: FIG. 19 study, mice with high NF-κB; assay type: in vivo, mouse; details: 1 kg/mg IV bortezomib
Protocol: as §2, §3

[7] = system: KP lung cancer cells in NCR nu/nu mice; assay: Subcutaneous tumor model, caliper tumor volume; details: KP cells s.c. in immunocompromised mice
Protocol: 1×10^6 KP lung cancer cells were injected subcutaneously into NCR nu/nu mice. Tumor volume was quantified by caliper measurements. Treatments started when tumors reached −100 mm^3 (set to 1 in tumor volume axis and 0 days in time axis). Arrows indicate Bortezomib (1 mg/kg) or Cisplatin (7 mg/kg) injections. Error bars are s.d (n=4).
To compare the efficacy of bortezomib to that of other lung cancer therapies, we injected KP lung tumor cells s.c. into immunocompromised mice, allowed tumors to form, and then treated the mice with bortezomib.

SMILES: CC(C)C[C@H](NC(=O)[C@H](Cc1ccccc1)NC(=O)c1cnccn1)B(O)O [bortezomib, N-(2-pyrazine) carbonyl-L-phenylalanine-L-leucine boronic acid]
- expression of NF-κB target genes MYC, BCL2, XIAP [1]: downregulated
- survival [2]: 104.2 ± 19.8 days
- tumor response by the 4th dose ([3]; once a week for 4 weeks, 13 weeks): insensitive to treatment
- tumor response after the first dose ([3]; once a week for 4 weeks, twice-weekly microCT, 10.5 weeks): rapid KP tumor regression
- average decrease in tumor volume at D4 compared with D0 ([3]; single dose 1 mg/kg i.v., 10 weeks after Adeno-Cre infection, microCT): 55.4%
- tumor response, apoptosis and survival (FIG. 19) [4]: no tumor regression, apoptosis and no survival advantage
- tumor regression [5]: did not regress
- tumor response, apoptosis and survival (FIG. 19) [6]: rapid tumor progression, apoptosis, and increased survival
- tumor volume, short term ([7]; Bortezomib 1 mg/kg): markedly reduced tumor volumes
- tumor progression ([7]; Bortezomib 1 mg/kg or Cisplatin 7 mg/kg): diminished tumor progression to a similar extent as cisplatin
